Target: BRCT(BRCA1) (Homo sapiens, UniProt P38398)
Assay: fluorescence polarization competition
Type: binding
Description: fluorescence polarization competition on BRCT(BRCA1)

BRCT(BRCA1), sequence (P38398 1646-1859): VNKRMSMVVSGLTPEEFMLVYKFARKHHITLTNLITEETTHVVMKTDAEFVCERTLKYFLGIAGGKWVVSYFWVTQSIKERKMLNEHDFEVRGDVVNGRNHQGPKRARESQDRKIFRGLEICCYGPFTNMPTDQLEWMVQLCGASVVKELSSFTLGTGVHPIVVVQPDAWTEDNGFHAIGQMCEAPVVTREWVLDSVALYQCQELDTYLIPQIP

CC(=O)N[C@@H](COP(=O)(O)O)C(=O)Nc1cccc(CC(=O)N[C@@H](Cc2ccccc2)C(=O)O)c1 [N1]
IC50: > 250 µM

From PMC4999267, “Characterization of Promiscuous Binding of Phosphor Ligands to Breast-Cancer-Gene 1 (BRCA1) C-Terminal (BRCT): Molecular Dynamics, Free Energy, Entropy and Inhibitor Design” (PLoS Computational Biology, 2016)
